According to patent publication US10508104B2, “6-hydroxy-5-(phenyl/heteroarylsulfonyl)pyrimidin-4(1H)-one as APJ agonists” (Bristol-Myers Squibb Company, priority 2016, dated 2019):

Target: human APJ receptor (Homo sapiens (Human), UniProt P35414)
Assay: Intracellular cAMP accumulation assay (APJ hcAMP, HTRF)
Format: cell-based
Conditions: HEK293 cells stably expressing human APJ receptor; inhibition of forskolin-mediated cAMP production; read-out: Human APJ cAMP EC50 Potency range
Procedure: Intracellular cAMP Accumulation Assay
HEK293 cells stably expressing human APJ receptor were used to assess the activity of compounds. Cultured cells were detached and resuspended in the cAMP Homogeneous Time-Resolved Fluorescence (HTRF) assay buffer (Cisbio cat; #62AM4PEJ). The assay was performed in 384-well assay plates (Perkin-Elmer; cat #6008289) according to assay protocol provided by the manufacturer. Serial dilutions of a compound together with assay buffer containing […] and 2 μM forskolin were added to each well containing 5,000 cells and incubated for 30 minutes at room temperature. Subsequently, cAMP D2 reagent was added in the lysis buffer followed by the EuK antibody (Cisbio; cat #62AM4PEJ) and incubated for 60 min. The fluorescence emission ratio was measured using fluorometer. The intracellular cAMP concentrations (compound-stimulated inhibition of forskolin-mediated cAMP production) were calculated by extrapolation from a standard curve using known cAMP concentrations. The EC50 values were obtained by fitting the data to a sigmoidal concentration-response curve with variable slope.
The EC50 value of each compound is presented at the end of the example description.
The biological activity of the exemplified compounds of this invention determined by the assay described above is shown at the end of each example.

Sequence of human APJ receptor (P35414 whole entry): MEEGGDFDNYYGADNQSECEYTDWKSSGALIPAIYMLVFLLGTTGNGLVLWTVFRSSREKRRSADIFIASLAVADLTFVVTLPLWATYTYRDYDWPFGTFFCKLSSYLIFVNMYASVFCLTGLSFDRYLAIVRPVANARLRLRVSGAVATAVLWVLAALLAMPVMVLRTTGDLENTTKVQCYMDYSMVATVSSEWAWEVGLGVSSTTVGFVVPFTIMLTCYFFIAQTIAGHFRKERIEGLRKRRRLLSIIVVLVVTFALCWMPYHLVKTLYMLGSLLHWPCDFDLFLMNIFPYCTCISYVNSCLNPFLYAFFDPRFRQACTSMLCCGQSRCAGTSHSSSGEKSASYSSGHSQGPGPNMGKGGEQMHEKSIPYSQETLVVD

| SMILES | EC50 [nM] |
| --- | --- |
| CCCCc1nc(=O)c(S(=O)(=O)c2ccc(-c3cccc(C#N)c3C)cc2)c(O)n1[C@@H](CC)c1cccc(C#N)c1 [Example 492, 4′-({2-butyl-1-[(1S)-1-(3-cyanophenyl)propyl]-6-hydroxy-4-oxo-1,4-dihydropyrimidin-5-yl}sulfonyl)-2-methyl-[1,1′-biphenyl]-3-carbonitrile] | 0.01 to 10 |
| COc1cccc(OC)c1-n1c(-c2ccc(F)cc2)nc(=O)c(S(=O)(=O)c2ccc(Br)cc2)c1O [Example 269, 5-((4-Bromophenyl)sulfonyl)-1-(2,6-dimethoxyphenyl)-2-(4-fluorophenyl)-6-hydroxypyrimidin-4(1H)-one] | 100 to 300 |
| COC[C@@H](c1cc(F)cc(F)c1)n1c(COC(C)C)nc(=O)c(S(=O)(=O)c2ccc(-c3ccc(F)nc3C)cc2)c1O [Example 380, 1-[(1R)-1-(3,5-difluorophenyl)-2-methoxyethyl]-5-[4-(6-fluoro-2-methylpyridin-3-yl)benzenesulfonyl]-6-hydroxy-2-[(propan-2-yloxy)methyl]-1,4-dihydropyrimidin-4-one] | 0.01 to 10 |
| Cc1ncccc1-c1ccc(S(=O)(=O)c2c(O)n([C@H](c3cccc(C#N)c3)C3CC3)c(CC3CC3)nc2=O)cc1 [Example 497, 3-[(S)-cyclopropyl[2-(cyclopropylmethyl)-6-hydroxy-5-[4-(2-methylpyridin-3-yl)benzenesulfonyl]-4-oxo-1,4-dihydropyrimidin-1-yl]methyl]benzonitrile] | 0.01 to 10 |
| COC[C@@H](c1cc(F)cc(F)c1)n1c(COC(C)C)nc(=O)c(S(=O)(=O)c2ccc(-c3ccccc3C(N)=O)cc2)c1O [Example 392, 4′-({1-[(1R)-1-(3,5-difluorophenyl)-2-methoxyethyl]-6-hydroxy-4-oxo-2-[(propan-2-yloxy)methyl]-1,4-dihydropyrimidin-5-yl}sulfonyl)-[1,1′-biphenyl]-2-carboxamide] | 0.01 to 10 |
| CCCCc1nc(=O)c(S(=O)(=O)c2ccc(-c3ccc(F)cc3C(N)=O)cc2)c(O)n1[C@@H](CC)c1ccc(C#N)c(F)c1 [Example 514, 4′-({2-butyl-1-[(1S)-1-(4-cyano-3-fluorophenyl)propyl]-6-hydroxy-4-oxo-1,4-dihydropyrimidin-5-yl}sulfonyl)-4-fluoro-[1,1′-biphenyl]-2-carboxamide] | 0.01 to 10 |
| CCCCc1nc(=O)c(S(=O)(=O)c2ccc(-c3ccc(F)nc3C)cc2)c(O)n1[C@H]1CCc2c(C#N)cccc21 [Example 540, (1S)-1-{2-butyl-5-[4-(6-fluoro-2-methylpyridin-3-yl)benzenesulfonyl]-6-hydroxy-4-oxo-1,4-dihydropyrimidin-1-yl}-2,3-dihydro-1H-indene-4-carbonitrile] | 0.01 to 10 |

Same assay, conditions: human APJ, cAMP accumulation; read-out: Human APJ cAMP EC50 Potency range

| SMILES | EC50 [nM] |
| --- | --- |
| CCCCc1nc(O)c(S(=O)(=O)c2ccc(Br)cc2)c(=O)n1[C@@H](CC)c1ccc2c(c1)OCO2 [Example 219, 3-[(1S)-1-(2H-1,3-benzodioxol-5-yl)propyl]-5-(4-bromobenzenesulfonyl)-2-butyl-6-hydroxy-3,4-dihydropyrimidin-4-one] | 0.01 to 10 |
| CCCCc1nc(=O)c(S(=O)(=O)c2ccc(-c3cncc(F)c3)cc2)c(O)n1[C@H]1CCCc2ccccc21 [Example 222, 2-butyl-5-[4-(5-fluoropyridin-3-yl)benzenesulfonyl]-6-hydroxy-1-[(1S)-1,2,3,4-tetrahydronaphthalen-1-yl]-1,4 dihydropyrimidin-4-one] | 0.01 to 10 |
| CCOCc1nc(=O)c(S(=O)(=O)c2ccc(-c3ccnc(F)c3C)cc2)c(O)n1[C@H]1CCOc2ccccc21 [Example 342, 1-[(4S)-3,4-dihydro-2H-1-benzopyran-4-yl]-2-(ethoxymethyl)-5-[4-(2-fluoro-3-methylpyridin-4-yl)benzenesulfonyl]-6-hydroxy-1,4-dihydropyrimidin-4-one] | 10 to 100 |
| CCOCc1nc(=O)c(S(=O)(=O)c2ccc(-c3ccc(F)nc3C)cc2)c(O)n1[C@H]1CCc2ccccc21 [Example 326, 1-[(1S)-2,3-dihydro-1H-inden-1-yl]-2-(ethoxymethyl)-5-[4-(6-fluoro-2-methylpyridin-3-yl)benzenesulfonyl]-6-hydroxy-1,4-dihydropyrimidin-4-one] | 0.01 to 10 |
| CCOCc1nc(=O)c(S(=O)(=O)c2ccc(-c3ccnc(F)c3C)cc2)c(O)n1[C@H]1CCc2ccccc21 [Example 324, 1-[(1S)-2,3-dihydro-1H-inden-1-yl]-2-(ethoxymethyl)-5-[4-(2-fluoro-3-methylpyridin-4-yl)benzenesulfonyl]-6-hydroxy-1,4-dihydropyrimidin-4-one] | 0.01 to 10 |

Same assay, conditions: human APJ, intracellular cAMP accumulation; read-out: Human APJ cAMP EC50 Potency range

| SMILES | EC50 [nM] |
| --- | --- |
| CCCCc1nc(=O)c(S(=O)(=O)c2ccc(-c3ccc(C(=O)NC4CC4)cc3)cc2)c(O)n1-c1c(OC)cccc1OC [Example 39, 4-(4-{[2-butyl-1-(2,6-dimethoxyphenyl)-6-hydroxy-4-oxo-1,4-dihydropyrimidin-5-yl]sulfonyl}phenyl)-N-cyclopropylbenzamide] | 0.01 to 10 |
| CCCCc1nc(=O)c(S(=O)(=O)c2ccc(-c3ccncc3C)cc2)c(O)n1-c1c(OC)cccc1OC [Example 40, 2-butyl-1-(2,6-dimethoxyphenyl)-6-hydroxy-5-[4-(3-methylpyridin-4-yl)benzenesulfonyl]-1,4-dihydropyrimidin-4-one] | 0.01 to 10 |
| CCCCc1nc(=O)c(S(=O)(=O)c2ccc(-c3nnc(C4CC4)o3)cc2)c(O)n1-c1c(OC)cccc1OC [Example 117, 2-butyl-5-[4-(5-cyclopropyl-1,3,4-oxadiazol-2-yl)benzenesulfonyl]-1-(2,6-dimethoxyphenyl)-6-hydroxy-1,4-dihydropyrimidin-4-one] | 0.01 to 10 |
| CCCCc1nc(=O)c(S(=O)(=O)c2ccc(-c3cccnc3C)cc2)c(O)n1[C@@H](CC)c1cccc(F)c1 [Example 213, 2-butyl-1-[(1S)-1-(3-fluorophenyl)propyl]-6-hydroxy-5-[4-(2-methylpyridin-3-yl)benzenesulfonyl]-1,4-dihydropyrimidin-4-one] | 0.01 to 10 |
| CCCCc1nc(=O)c(S(=O)(=O)c2ccc(-c3ccncc3C)cc2)c(O)n1[C@H](C)c1ccc(OC)cc1 [Example 210, 2-butyl-6-hydroxy-1-[(1R)-1-(4-methoxyphenyl)ethyl]-5-[4-(3-methylpyridin-4-yl)benzenesulfonyl]-1,4-dihydropyrimidin-4-one] | 0.01 to 10 |
| CCCCc1nc(=O)c(S(=O)(=O)c2ccc(-n3cc(Cl)ccc3=O)cc2)c(O)n1-c1c(CC)cccc1CC [Example 77, 2-butyl-5-[4-(5-chloro-2-oxo-1,2-dihydropyridin-1-yl)benzenesulfonyl]-1-(2,6-diethylphenyl)-6-hydroxy-1,4-dihydropyrimidin-4-one] | 0.01 to 10 |
| CCCCc1nc(=O)c(S(=O)(=O)c2ccc(-c3cccnc3OC)cc2)c(O)n1-c1c(OC)cccc1OC [Example 30, 2-butyl-1-(2,6-dimethoxyphenyl)-6-hydroxy-5-[4-(2-methoxypyridin-3-yl)benzenesulfonyl]-1,4-dihydropyrimidin-4-one] | 0.01 to 10 |
| CCCCc1nc(=O)c(S(=O)(=O)c2ccc(-c3ccc(NC(=O)OC)cc3)cc2)c(O)n1-c1c(OC)cccc1OC [Example 48, methyl N-[4-(4-{[2-butyl-1-(2,6-dimethoxyphenyl)-6-hydroxy-4-oxo-1,4-dihydropyrimidin-5-yl]sulfonyl}phenyl)phe-nyl]carbamate] | 0.01 to 10 |
| COC[C@@H](c1ccccc1)n1c(CC2CC2)nc(=O)c(S(=O)(=O)c2ccc(-c3ccnc(F)c3C)cc2)c1O [Example 179, 2-(cyclopropylmethyl)-5-[4-(2-fluoro-3-methylpyridin-4-yl)benzenesulfonyl]-6-hydroxy-1-[(1R)-2-methoxy-1-phenylethyl]-1,4-dihydropyrimidin-4-one] | 0.01 to 10 |
| CCCCc1nc(=O)c(S(=O)(=O)c2ccc(-c3ccc(Cl)c(F)c3)cc2)c(O)n1-c1c(OC)cccc1OC [Example 36, 2-butyl-5-[4-(4-chloro-3-fluorophenyl)benzene-sulfonyl]-1-(2,6-dimethoxyphenyl)-6-hydroxy-1,4-dihydropyrimidin-4-one] | 0.01 to 10 |
| CCCCc1nc(=O)c(S(=O)(=O)c2ccc(-c3ccc(F)nc3C)cc2)c(O)n1[C@@H](COC)c1ccccc1 [Example 150, 2-butyl-5-[4-(6-fluoro-2-methylpyridin-3-yl)benzenesulfonyl]-6-hydroxy-1-[(1R)-2-methoxy-1-phenylethyl]-1,4-dihydropyrimidin-4-one] | 0.01 to 10 |
| CCCCc1nc(=O)c(S(=O)(=O)c2ccc(C)cn2)c(O)n1-c1c(CC)cccc1CC [Example 104, 2-butyl-1-(2,6-diethylphenyl)-6-hydroxy-5-[(5-methylpyridin-2-yl)sulfonyl]-1,4-dihydropyrimidin-4-one] | 0.01 to 10 |
| COc1cccc(OC)c1-n1c(COC(C)C)nc(=O)c(S(=O)(=O)c2ccc(-c3ccc(F)nc3)cc2)c1O [Example 32, 1-(2,6-dimethoxyphenyl)-5-[4-(6-fluoropyridin-3-yl)benzenesulfonyl]-6-hydroxy-2-[(propan-2-yloxy)methyl]-1,4-dihydropyrimidin-4-one] | 0.01 to 10 |
| CCCCc1nc(=O)c(S(=O)(=O)c2ccc(-c3ccc(C)c(C)c3)cc2)c(O)n1-c1c(OC)cccc1OC [Example 59, 2-butyl-1-(2,6-dimethoxyphenyl)-5-[4-(3,4-dimethylphenyl)benzene-sulfonyl]-6-hydroxy-1,4-dihydropyrimidin-4-one] | 0.01 to 10 |
